In patent US20090062294A1, “HETEROARYL-SUBSTITUTED UREA MODULATORS OF FATTY ACID AMIDE HYDROLASE” (priority 2007, published 2009):
Structures can show the parent of a compound that is named as a salt.

What was measured:
rat FAAH = biological target: T1, rat FAAH (Rattus norvegicus, UniProt P97612); test: Assay Method 2: FAAH assay, 3H-anandamide hydrolysis in homogenate of SK-N-MC cells transfected with rat FAAH; type: biochemical; details: average of results, > = solubility limit or highest concentration tested
T1 sequence (P97612 1-579): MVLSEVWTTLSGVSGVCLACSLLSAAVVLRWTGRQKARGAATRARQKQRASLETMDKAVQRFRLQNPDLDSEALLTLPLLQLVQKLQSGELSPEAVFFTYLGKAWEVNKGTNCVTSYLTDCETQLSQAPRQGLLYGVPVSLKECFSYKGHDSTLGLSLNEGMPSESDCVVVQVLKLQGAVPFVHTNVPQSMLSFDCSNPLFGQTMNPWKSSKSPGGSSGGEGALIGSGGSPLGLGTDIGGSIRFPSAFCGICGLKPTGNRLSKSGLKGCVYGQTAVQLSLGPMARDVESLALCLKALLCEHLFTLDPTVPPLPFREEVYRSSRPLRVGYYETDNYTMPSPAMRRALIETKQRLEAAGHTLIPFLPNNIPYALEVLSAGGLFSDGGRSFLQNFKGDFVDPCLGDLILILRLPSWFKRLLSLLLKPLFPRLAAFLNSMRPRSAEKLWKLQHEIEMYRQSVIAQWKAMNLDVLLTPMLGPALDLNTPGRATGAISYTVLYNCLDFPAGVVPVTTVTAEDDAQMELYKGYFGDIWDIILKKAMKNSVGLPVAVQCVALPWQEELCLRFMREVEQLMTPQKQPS
Outline: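 Homogenate of SK-N-MC cells stably transfected with rat FAAH cDNA (G418-selected clones) in pH 9 Tris/EDTA/glycerol/Triton buffer. Incubated with compound and 80 nM final [3H]-anandamide for 1 h at rt. Released [3H]-ethanolamine separated from substrate on activated charcoal filters and counted by scintillation.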

FAAH = biological target: T2, FAAH (Homo sapiens, UniProt O00519); test: Assay Method 1: FAAH assay, 3H-anandamide hydrolysis in homogenate of T84 cells or SK-N-MC cells transfected with human FAAH; type: biochemical; details: average of results, > = solubility limit or highest concentration tested
T2 sequence (O00519 1-579): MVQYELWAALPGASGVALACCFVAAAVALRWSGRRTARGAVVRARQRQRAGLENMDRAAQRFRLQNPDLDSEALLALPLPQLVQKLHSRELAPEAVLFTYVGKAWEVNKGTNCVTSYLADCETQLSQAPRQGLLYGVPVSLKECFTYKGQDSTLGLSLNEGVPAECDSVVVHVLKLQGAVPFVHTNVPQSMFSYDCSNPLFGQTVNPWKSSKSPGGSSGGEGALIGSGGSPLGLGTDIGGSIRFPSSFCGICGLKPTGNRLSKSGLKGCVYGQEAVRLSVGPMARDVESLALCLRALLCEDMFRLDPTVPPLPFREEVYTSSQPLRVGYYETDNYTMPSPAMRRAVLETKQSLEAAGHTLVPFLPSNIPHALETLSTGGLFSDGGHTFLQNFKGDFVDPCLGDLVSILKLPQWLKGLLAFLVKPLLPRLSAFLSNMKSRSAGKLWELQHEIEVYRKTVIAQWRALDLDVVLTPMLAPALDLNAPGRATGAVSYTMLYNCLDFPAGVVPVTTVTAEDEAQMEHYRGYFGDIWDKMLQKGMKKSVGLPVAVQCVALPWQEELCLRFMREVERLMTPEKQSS
Outline: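 Homogenates of T84 cells or of SK-N-MC cells stably transfected with human FAAH (G418-selected) were prepared in pH 9 Tris/EDTA/glycerol/Triton buffer. They were incubated with compound and 80 nM final ^3H-anandamide for 1 h at rt. Released ^3H-ethanolamine was separated on activated charcoal and counted by scintillation.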

| Compound | IC50 (rat FAAH) | IC50 (FAAH) |
| --- | --- | --- |
| O=C(Nc1noc2ccccc12)N1CCN(Cc2ccc(OCc3ccccc3)cc2)CC1 [Example 112, N-1,2-Benzisoxazol-3-yl-4-[4-(benzyloxy)benzyl]piperazine-1-carboxamide] | 0.27 µM | 0.04 µM |
| Cc1ccccc1C#Cc1cccc(CN2CCN(C(=O)Nc3noc4ccccc34)CC2)c1 [Example 63, 4-(3-o-Tolylethynyl-benzyl)-piperazine-1-carboxylic acid benzo[d]isoxazol-3-ylamide] | 0.077 µM | 0.07 µM |
| O=C(Nc1cnccn1)N1CCN(Cc2cccc(Oc3ccc(F)c(C(F)(F)F)c3)c2)CC1 [Example 241, 4-{3-[4-Fluoro-3-(trifluoromethyl)phenoxy]benzyl}-N-pyrazin-2-ylpiperazine-1-carboxamide] | 0.37 µM | 0.008 µM |
| O=C(Nc1nccnc1Cl)N1CCN(Cc2cccc(Oc3ccc(Cl)cc3)c2)CC1 [Example 243, 4-[3-(4-Chlorophenoxy)benzyl]-N-(3-chloropyrazin-2-yl)piperazine-1-carboxamide] | 0.009 µM | 0.002 µM |
| O=C(Nc1noc2ccccc12)N1CCN(Cc2cccc(Oc3ccccc3Cl)c2)CC1 [Example 122, N-1,2-Benzisoxazol-3-yl-4-[3-(2-chlorophenoxy)benzyl]piperazine-1-carboxamide] | 0.115 µM | 0.148 µM |
| N#Cc1ccc(Oc2cccc(CN3CCN(C(=O)Nc4ccon4)CC3)c2)cc1 [Example 152, 4-[3-(4-Cyano-phenoxy)-benzyl]-piperazine-1-carboxylic acid isoxazol-3-ylamide] | 5 µM | 0.33 µM |
| O=C(Nc1noc2ccccc12)N1CCN(Cc2cccc(OC(F)(F)F)c2)CC1 [Example 52, 4-(3-Trifluoromethoxy-benzyl)-piperazine-1-carboxylic acid benzo[d]isoxazol-3-ylamide trifluoroacetic acid salt] | 0.322 µM | 0.074 µM |
| O=C(Nc1cccc2ncccc12)N1CCC(Cc2ccc3ccccc3c2)CC1 [Example 20, 4-Naphthalen-2-ylmethyl-piperidine-1-carboxylic acid quinolin-5-ylamide trifluoroacetic acid salt] | 0.25 µM | 0.935 µM |
| O=C(Nc1ccc(Cl)nn1)N1CCC(Cc2cccc(C(F)(F)F)c2)CC1 [Example 25, 4-(3-Trifluoromethyl-benzyl)-piperidine-1-carboxylic acid (6-chloro-pyridazin-3-yl)-amide] | 1.3 µM | 1.3 µM |
| O=C(Nc1nnn[nH]1)N1CCN(Cc2cccc(Oc3ccc(Cl)c(Cl)c3)c2)CC1 [Example 174, 4-[3-(3,4-Dichlorophenoxy)benzyl]-N-1H-tetrazol-5-ylpiperazine-1-carboxamide] | 0.03 µM | 0.1 µM |
| O=C(Nc1noc2ccccc12)N1CCN(Cc2cnc3ccccc3c2)CC1 [Example 117, N-1,2-Benzisoxazol-3-yl-4-(quinolin-3-ylmethyl)piperazine-1-carboxamide] | 0.44 µM | 0.13 µM |
| O=C(Nc1cccnn1)N1CCN(Cc2ccc(Br)c(Br)c2)CC1 [Example 195, 4-(3,4-Dibromobenzyl)-N-pyridazin-3-ylpiperazine-1-carboxamide] | 0.31 µM | 0.11 µM |
| O=C(Nc1noc2ccccc12)N1CCN(Cc2cccc(C#CC3CC3)c2)CC1 [Example 76, N-1,2-Benzisoxazol-3-yl-4-[3-(cyclopropylethynyl)benzyl]-piperazine-1-carboxamide] | 0.4 µM | 0.01 µM |
| O=C(Nc1noc2ccccc12)N1CCN(Cc2cccc(Oc3cccc(C(F)(F)F)c3)c2)CC1 [Example 51, 4-[3-(3-Trifluoromethyl-phenoxy)-benzyl]-piperazine-1-carboxylic acid benzo[d]isoxazol-3-ylamide trifluoroacetic acid salt] | 0.029 µM | 0.028 µM |
| O=C(Nc1cc[nH]n1)N1CCN(Cc2cccc(Oc3cccc(C(F)(F)F)c3)c2)CC1 [Example 55, 4-[3-(3-Trifluoromethyl-phenoxy)-benzyl]-piperazine-1-carboxylic acid (1H-pyrazol-3-yl)-amide trifluoroacetic acid salt] | 0.764 µM | 7.75 µM |

The remaining molecules from weak to strong by IC50 (rat FAAH), led by results:

| IC50 (rat FAAH) | IC50 (FAAH) | Compound |
| --- | --- | --- |
| 5.3 µM | 0.4 µM | O=C(Nc1cnccn1)N1CCN(Cc2cccc(Oc3ccccc3)c2)CC1 [Example 227, 4-(3-Phenoxy-benzyl)-piperazine-1-carboxylic acid pyrazin-2-ylamide] |
| 3 µM | 5 µM | O=C(Nc1nc(-c2ccccc2)ns1)N1CCC(Cc2ccc3ccccc3c2)CC1 [Example 12, 4-Naphthalen-2-ylmethyl-piperidine-1-carboxylic acid (3-phenyl-[1,2,4]thiadiazol-5-yl)-amide] |
| 1.2 µM | 0.4 µM | O=C(Nc1ccon1)N1CCN(Cc2cccc(Oc3ccc4ccccc4c3)c2)CC1 [Example 150, 4-[3-(Naphthalen-2-yloxy)-benzyl]-piperazine-1-carboxylic acid isoxazol-3-ylamide] |
| 1.2 µM | 0.17 µM | O=C(Nc1cccc2nonc12)N1CCN(Cc2ccc3c(c2)OC(F)(F)O3)CC1 [Example 5, 4-(2,2-Difluoro-benzo[1,3]dioxol-5-ylmethyl)-piperazine-1-carboxylic acid benzo[1,2,5]oxadiazol-4-ylamide trifluoroacetic acid salt] |
| 1 µM | 1.6 µM | N#Cc1ccc(Oc2cccc(CN3CCN(C(=O)Nc4nn[nH]n4)CC3)c2)cc1 [Example 187, 4-[3-(4-Cyanophenoxy)benzyl]-N-2H-tetrazol-5-ylpiperazine-1-carboxamide] |
| 0.36 µM | 0.08 µM | O=C(Nc1ccon1)N1CCN(Cc2cccc(Oc3cccc(Br)c3)c2)CC1 [Example 157, 4-[3-(3-Bromophenoxy)benzyl]-N-isoxazol-3-ylpiperazine-1-carboxamide] |
| 0.12 µM | 0.08 µM | O=C(Nc1noc2ccccc12)N1CCN(Cc2ccc(Br)cc2)CC1 [Example 120, N-1,2-Benzisoxazol-3-yl-4-(4-bromobenzyl)piperazine-1-carboxamide] |
| 0.115 µM | 0.024 µM | O=C(Nc1noc2ccccc12)N1CCN(Cc2cccc(C#Cc3ccccc3)c2)CC1 [Example 133, N-1,2-Benzisoxazol-3-yl-4-{[3-(phenylethynyl)phenyl]methyl}piperazine-1-carboxamide] |
| 0.08 µM | 0.105 µM | O=C(Nc1noc2ccccc12)N1CCN(Cc2cccc(C#Cc3ccccc3C(F)(F)F)c2)CC1 [Example 64, N-1,2-Benzisoxazol-3-yl-4-(3-{[2-(trifluoromethyl)-phenyl]-ethynyl}benzyl)-piperazine-1-carboxamide] |
| 0.05 µM | 0.013 µM | O=C(Nc1noc2ccccc12)N1CCN(Cc2cccc(C#CC3CCCC3)c2)CC1 [Example 71, N-1,2-Benzisoxazol-3-yl-4-[3-(cyclopentylethynyl)benzyl]-piperazine-1-carboxamide] |
| 0.009 µM | 0.045 µM | O=C(Nc1noc2ccccc12)N1CCN(Cc2cccc(Oc3ccc4ccccc4c3)c2)CC1 [Example 119, N-1,2-Benzisoxazol-3-yl-4-[3-(naphthalen-2-yloxy)benzyl]piperazine-1-carboxamide] |
